One compound from patent US6384075B1, “Bicyclic amino derivatives and PGD2, antagonist containing them” (Shionogi & Co., Ltd., priority 1995, dated 2002) can be followed below.

Test [1] concerns the target T1, PGD2 receptor (Homo sapiens, UniProt Q13258).
T1 construct: Preparation of Human Platelet Membrane Fraction; from tissue; host or cells: human platelets (membrane fraction) from blood of healthy volunteers
T1 sequence (Q13258 1-359): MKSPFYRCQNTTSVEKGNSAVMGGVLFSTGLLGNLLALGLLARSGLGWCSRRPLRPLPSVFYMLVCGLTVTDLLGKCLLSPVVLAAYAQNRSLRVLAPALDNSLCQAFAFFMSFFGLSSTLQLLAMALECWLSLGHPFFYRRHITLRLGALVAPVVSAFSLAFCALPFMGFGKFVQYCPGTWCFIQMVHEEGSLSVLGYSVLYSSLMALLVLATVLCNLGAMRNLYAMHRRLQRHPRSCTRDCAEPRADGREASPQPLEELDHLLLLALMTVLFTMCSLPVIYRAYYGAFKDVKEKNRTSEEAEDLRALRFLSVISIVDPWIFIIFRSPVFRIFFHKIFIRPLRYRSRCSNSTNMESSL
The experiment in a line: Binding to PGD2 receptor ([3H]PGD2, human platelet membrane fraction). Particulars: 5 nM [3H]PGD2, 4° C., 90 min, read-out: Activity (binding-inhibitory activity, concentration required for 50% inhibition, IC50). Here is the method: (1) Preparation of Human Platelet Membrane Fraction
Blood sample was obtained using a plastic syringe containing 3.8% sodium citrate from a venous of healthy volunteers (adult male and female), put into a plastic test tube and mixed gently by inversion. The sample was then centrifuged at 1800 rpm, 10 min at room temperature, and supernatant containing PRP (platelet rich plasma) was collected. The PRP was re-centrifuged at 2300 rpm, 22 min at room temperature to obtain platelets. The platelets were homogenized using a homogenizer (Ultra-Turrax) followed by centrifugation 3 times at 20,000 rpm, 10 min at 4° C. to obtain platelet membrane fraction. After protein determination, the membrane fraction was adjusted to 2 mg/ml and preserved in a refrigerator at […] until use.
(2) Binding to PGD2 Receptor
To a binding-reaction solution (50 mM Tris/HCl, pH 7.4, 5 mM MgCl2) (0.2 ml) were added human platelet membrane fraction (0.1 mg) and 5 nM [3H]PGD2 (115 Ci/mmol), and reacted at 4° C. for 90 min. After the reaction completed, the reaction mixture was filtered through the glass fiber filter paper, washed several times with cooled saline, and measured radioactivity retained on the filter paper. The specific binding was calculated by subtracting the non-specific binding (the binding in the presence of 10 μM PGD2) from the total binding. […]

The test system of test [2] is nasal cavity resistance (nasal occlusion model). The experiment in a line: Nasal occlusion model: nasal cavity resistance after antigen (OVA) exposure in sensitized guinea pig. It counts as in vivo. To be noted: 1 mg/kg (i.v.), 10 min before antigen exposure. Here is the method: Experiment Using Nasal Occlusion Model
The method used for measuring the nasal cavity resistance and evaluating the anti-nasal occlusion using a guinea pig are described below.
A 1% ovalbumin (OVA) solution was treated with ultrasonic nebulizer to obtain an aerosol. Hartley male guinea pig was sensitized by inhaling twice the aerosol for 10 min at one-week interval. Seven-day after the sensitization, the guinea pig was exposed to an antigen to initiate the reaction. Then the trachea was incised under the anesthesia with pentobarbital (30 mg/kg, i.p.) and cannulas were inserted into the trachea at the pulmonary and nasal cavity sides. The canal inserted at the pulmonary side was connected with an artificial respirator that provides 4 ml air 60 times/min. After arresting the spontaneous respiration of a guinea pig with Garamin (2 mg/kg, i.v.), air was supplied to the snout side with an artificial respirator at the frequency of 70 times/min, and the flow rate of 4 ml air/time, and the atmospheric pressure required for the aeration was measured by the use of a transducer fitted at the branch. The measurement was used as a parameter of the nasal cavity resistance. The exposure of an antigen was carried out by generating aerosol of 3% OVA solution for 3 min between the respirator and nasal cavity cannula. The test drug was injected intravenously 10 min before the antigen exposure. […]

As to `O=C(O)CCC/C=C\C[C@@H]1[C@H]2CC[C@H](C2)[C@H]1NS(=O)(=O)c1ccc2oc3ccccc3c2c1` [1a-2, (Z)-7-[(1S,2R,3R,4R)-3-(2-dibezofuryl)sulfonylaminobicyclo[2.2.1]hept-2-yl]-5-heptenoic acid], the IC50 in test [1] is 0.13 µM. The “Inhibition Rate (%) of nasal cavity resistance (AUC 0-30 min vs vehicle)” value in test [2] stood at 82%.
